Data from patent publication US8133847B2, “Pyrido[2,3-B]pyrazine derivatives useful as herbicidal compounds” (Syngenta Limited, priority 2006, dated 2012).

Legend:
Assay in all cases: Example B1 herbicidal action, post-emergence, 96-cell seed trays, climatic chamber
Format in all cases: in vivo
[1] = tested on: Amaranthus retroflexus (AMARE); details: Application post-emergence, 1000 mg/l spray equivalent to 1000 g/ha, evaluated after 9 days
Procedure, shortened: (§1)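 Plants at 8–9 days post-sowing (23/17 °C, 13 h light, 50–60% humidity) sprayed post-emergence with 1000 mg/l active ingredient in 10% DMSO, equivalent to 1000 g/ha. Grown on at 24/19 °C, watered twice daily; damage scored after 9 days (0 = none, 100 = total).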

Solanum nigrum (SOLNI) = details: Application post-emergence, 1000 mg/l spray equivalent to 1000 g/ha, evaluated after 9 days (100=total damage to plant, 0=no damage to plant)
Procedure, shortened: as §1

Stellaria media (STEME) = details: Application post-emergence, 1000 mg/l spray equivalent to 1000 g/ha, evaluated after 9 days (100=total damage to plant, 0=no damage to plant)
Procedure, shortened: as §1

[2] = tested on: Nasturtium officinale (NAAOF); parameters: scale not given here; details: Application post-emergence, 1000 mg/l spray equivalent to 1000 g/ha, evaluated after 9 days (100=total damage to plant, 0=no damage to plant)
Procedure, shortened: as §1

Compound | damage to plant, Amaranthus retroflexus (AMARE) [1] | damage to plant, Solanum nigrum (SOLNI) (Solanum nigrum (SOLNI)) | damage to plant, Stellaria media (STEME) (Stellaria media (STEME)) | damage to plant, Nasturtium officinale (NAAOF) [2]
CCn1c(=O)c(-c2c(F)ccc(F)c2Cl)c(OC(=O)CC(C)(C)C)c2nccnc21 [Compound C112] | 6 | 7 | 7 | 5
CCn1c(=O)c(-c2ccc(Cl)c(Cl)c2)c(OC(C)=O)c2nccnc21 [Compound C72] | 0 | 0 | 2 | 8
O=c1[nH]c2nccnc2c(O)c1-c1c(Cl)cccc1Cl [Compound A5] | 3 | 3 | 3 | 6
CCn1c(=O)c(-c2cccc(C(F)(F)F)c2Cl)c(OC(=O)C(C)C)c2nccnc21 [Compound C78] | 6 | 4 | 6 | 8
C=CCn1c(=O)c(-c2c(Cl)cccc2Cl)c(OC(=O)CC)c2nccnc21 [Compound C30] | 8 | 4 | 8 | 8
CC#CCOC(=O)Oc1c(-c2c(Cl)cccc2Cl)c(=O)n(C)c2nccnc12 [Compound C178] | 4 | 2 | 7 | 6
CCCC(=O)Oc1c(-c2c(Cl)cccc2Cl)c(=O)n(C)c2nccnc12 [Compound C38] | 5 | 7 | 7 | 7
CC(C)C(=O)Oc1c(-c2cccc(C(F)(F)F)c2Cl)c(=O)n(CC2CC2)c2nccnc12 [Compound C124] | 9 | 7 | 8 | 8
CCn1c(=O)c(-c2cccc(Cl)c2)c(OC(C)=O)c2nccnc21 [Compound C66] | 0 | 0 | 7 | 7
Cc1cc(C(=O)Oc2c(-c3c(F)ccc(F)c3Cl)c(=O)n(C)c3nccnc23)c(C)o1 [Compound C102] | 4 | 7 | 7 | 7
CCC(=O)Oc1c(-c2c(Cl)cccc2Cl)c(=O)n(CC)c2nccnc12 [Compound C31] | 8 | 4 | 8 | 8
Cn1c(=O)c(-c2c(Cl)cccc2Cl)c(OC(=O)C(C)(C)C)c2nccnc21 [Compound C37] | 5 | 6 | 5 | 7
COc1c(Cl)cc(Cl)cc1-c1c(O)c2nccnc2[nH]c1=O [Compound A9] | 7 | 4 | 8 | 3
CCn1c(=O)c(-c2c(Cl)ccc(C)c2F)c(OC(=O)C(C)C)c2nccnc21 [Compound C115] | 4 | 4 | 8 | 7
Cn1c(=O)c(-c2ccccc2OC(F)(F)F)c(OC(=O)C(C)(C)C)c2nccnc21 [Compound C29] | 0 | 4 | 0 | 2
O=c1[nH]c2nccnc2c(O)c1-c1ccccc1C(F)(F)F [Compound A8] | 5 | 0 | 2 | 7
CCn1c(=O)c(-c2cccc(Cl)c2Cl)c(OC(=O)C(C)C)c2nccnc21 [Compound C45] | 8 | 6 | 9 | 8
CCn1c(=O)c(-c2ccc(Cl)cc2)c(OC(C)=O)c2nccnc21 [Compound C67] | 4 | 0 | 6 | 8

Compound | damage to plant, Amaranthus retroflexus (AMARE) [1] | damage to plant, Solanum nigrum (SOLNI) (Solanum nigrum (SOLNI)) | damage to plant, Stellaria media (STEME) (Stellaria media (STEME)) | damage to plant, Nasturtium officinale (NAAOF) [2]
Cn1c(=O)c(-c2c(F)ccc(F)c2Cl)c(OC(=O)c2ccccc2)c2nccnc21 [Compound C84] | 6 | 8 | 7 | 5
CC(C)C(=O)Oc1c(-c2ccccc2C(F)(F)F)c(=O)n(C)c2nccnc12 [Compound C110] | 7 | 6 | 7 | 6
CCn1c(=O)c(-c2cc(C(F)(F)F)cc(C(F)(F)F)c2)c(OC(C)=O)c2nccnc21 [Compound C104] | 2 | 0 | 0 | 4
CCn1c(=O)c(-c2c(F)ccc(F)c2Cl)c(OC(=O)C(C)(C)C)c2nccnc21 [Compound C21] | 8 | 0 | 8 | 8
Cn1c(=O)c(-c2c(Cl)cc(C(F)(F)F)cc2Cl)c(OC(=O)C(C)(C)C)c2nccnc21 [Compound C120] | 5 | 7 | 7 | 6
CC(C)C(=O)Oc1c(-c2ccc(F)cc2Cl)c(=O)n(C)c2nccnc12 [Compound C5] | 7 | 2 | 8 | 7
C=CCCn1c(=O)c(-c2ccccc2OC(F)(F)F)c(OC(C)=O)c2nccnc21 [Compound C22] | 1 | 2 | 5 | 8
CCn1c(=O)c(-c2c(Cl)ccc(C)c2F)c(OC(=O)C(C)(C)C)c2nccnc21 [Compound C117] | 0 | 5 | 1 | 0
CCC(=O)Oc1c(-c2c(Cl)cccc2Cl)c(=O)n(C)c2nccnc12 [Compound C32] | 8 | 2 | 8 | 8
CC(C)C(=O)Oc1c(-c2c(F)ccc(F)c2Cl)c(=O)n(C)c2ncc[n+]([O-])c12 [Compound C71, isobutyric acid 7-(2-chloro-3,6-difluorophenyl)-5-methyl-6-oxo-1-oxy-5,6-dihydropyrido[2,3-]pyrazin-8-yl ester] | 0 | 2 | 8 | 7
Cn1c(=O)c(-c2c(F)ccc(F)c2F)c(OC(=O)C(C)(C)C)c2nccnc21 [Compound C55] | 4 | 0 | 4 | 0
C=CCCCCCCCCC(=O)Oc1c(-c2c(F)ccc(F)c2Cl)c(=O)n(C)c2nccnc12 [Compound C101] | 7 | 4 | 2 | 3
O=c1[nH]c2nccnc2c(O)c1-c1ccc(F)cc1Cl [Compound A10] | 9 | 0 | 2 | 2
CC(=O)Oc1c(-c2ccc(Cl)cc2Cl)c(=O)[nH]c2nccnc12 [Compound B1] | 8 | 0 | 3 | 0
O=C(Oc1c(-c2c(F)ccc(F)c2Cl)c(=O)[nH]c2nccnc12)c1ccc([N+](=O)[O-])cc1 [Compound B40] | 6 | 0 | 1 | 0
Cc1ccc(Cl)c(-c2c(OC(=O)C(C)(C)C)c3nccnc3n(C)c2=O)c1F [Compound C116] | 0 | 4 | 4 | 2
Cn1c(=O)c(-c2ccccc2Cl)c(OC(=O)C(C)(C)C)c2nccnc21 [Compound C50] | 4 | 4 | 7 | 7
